# Assay results taken from patent EP4707279A1, “SUBSTITUTED TRICYCLIC HETEROCYCLIC COMPOUND AS PHARMACEUTICAL FOR TREATMENT OR PREVENTION OF COVID-19” (priority 2023, dated 2024).
# Tested on: SARS-CoV-2
# Experiment: CPE inhibition assay, anti-SARS-CoV-2 virus activity in vitro (Test Example 4)
# Format: cell-based
# Conditions: for inhibition at 10 µM: Severe acute respiratory syndrome coronavirus 2, VeroE6/TMPRSS2, 72 h, read-out: Anti SARS-CoV-2 activity; for Anti SARS-CoV-2 activity: CPE inhibition at 10 µM, VeroE6-TMPRSS2 cells, MOI 0.01, third day post infection, average of three tests
SMILES,inhibition at 10 µM [%],Anti SARS-CoV-2 activity
"CCOC(=O)[C@@H]1CCC2=C3N(Cc4ccccc4)C(=O)N(Cc4ccccc4)C(=O)N3[C@H](Cc3ccccc3)C(=O)N21 (stereo in doubt) [Compound 4B, Ethyl (6R,9S)-1,3,6-tribenzyl-2,4,7-trioxo-1,3,4,6,7,9,10,11-octahydro-2H-pyrrolo[2',1':3,4] pyrazino[1,2-a][1,3,5]triazine-9-carboxylate]",> 5,
"CCOC(=O)[C@@H]1CC[C@H]2N1C(=O)[C@@H](Cc1ccccc1)N1C(=O)N(Cc3ccccc3)C(=O)N(Cc3ccccc3)[C@]21O [Compound 1A, Ethyl (6R,9S,11aR,11bR)-1,3,6-tribenzyl-11b-hydroxy-2,4,7-trioxodecahydro-2H-pyrrolo[2',1':3,4]pyrazino[1,2-a][1,3,5]triazine-9-carboxylate]",< 1,
"CCOC(=O)[C@@H]1CCC2=C3N(Cc4ccccc4)C(=O)N(Cc4ccccc4)C(=O)N3[C@H](Cc3ccccc3)C(=O)N21 [Compound 1B, Ethyl (6R,9S)-1,3,6-tribenzyl-2,4,7-trioxo-1,3,4,6,7,9,10,11-octahydro-2H-pyrrolo[2',1':3,4]pyridazine[1,2-a][1,3,5]triazine-9-carboxylate]",,C (less than 1%)
"O=C(O)[C@@H]1CC[C@H]2N1C(=O)[C@@H](Cc1ccccc1)N1C(=O)N(Cc3ccccc3)C(=O)N(Cc3ccccc3)[C@]21O [Compound 1C, (6R,9S,11aR,11bR)-1,3,6-Tribenzyl-11b-hydroxy-2,4,7-trioxo-2H-pyrrolo[2',1':3,4]pyridazino[1,2-a][1,3,5] triazine-9-carboxylic acid]",,C (less than 1%)
"O=C(NCc1ccc2ccccc2c1)[C@@H]1CCC2=C3N(Cc4ccccc4)C(=O)N(Cc4ccccc4)C(=O)N3[C@H](Cc3ccccc3)C(=O)N21 [Compound 1E, (6R,9S)-1,3,6-Tribenzyl-N-(naphthalen-2-ylmethyl)-2,4,7-trioxo-1,3,4,6,7,9,10,11-octahydro-2H-pyrrolo[2',1':3,4] pyrazino[1,2-a][1,3,5]triazine-9-carboxamide]",< 1,
"O=C1[C@@H](Cc2ccccc2)N2C(=O)N(Cc3ccccc3)C(=O)N(Cc3ccccc3)[C@]2(O)[C@H]2CC[C@@H](CNCc3ccc4ccccc4c3)N12 [Compound 1F, (6R,9S,11aR,11bR)-1,3,6-Tribenzyl-11b-hydroxy-9-(((naphthalen-2-ylmethyl)amino)methyl)hexahydro-2H-pyrrolo[2',1':3,4]pyridazine[1,2-a][1,3,5]triazine-2,4,7(3H,6H)-trione]",,C (less than 1%)
"CCOC(=O)[C@@H]1CCC2=C3N(Cc4ccccc4)C(=O)N(Cc4ccccc4)C(=O)N3[C@H](C(C)C)C(=O)N21 [Compound 3B, Ethyl (6R.9S) 1,3-dibenzyl 6 isopropyl-2.4.7 trioxo-1,3,4,6,7,9,10,11-octahydro 2H-pyrrolo[2',1':3.4]pyrazi no[1,2 a][1,3,5] triazine 9 carboxylate]",> 5,
"CC(C)[C@@H]1C(=O)N2[C@H](C(=O)NCc3ccccc3)CC[C@@H]2[C@@]2(O)N(Cc3ccccc3)C(=O)N(Cc3ccccc3)C(=O)N12 [Compound 3F, (6R,9S,11aR,11bR)-N,1,3-tribenzyl-11b-hydroxy-6-isopropyl-2,4,7-trioxodecahydro-2H-pyrrolo[2',1':3,4]pyrazino[1,2-a][1,3,5]triazine-9-carboxamide]",> 5,
"CC(C)[C@@H]1C(=O)N2[C@H](C3=NCc4cn(-c5c[nH]c6ccccc56)c5cccc3c45)CC[C@@H]2[C@@]2(O)N(Cc3ccccc3)C(=O)N(Cc3ccccc3)C(=O)N12 [Compound 3H, (6R,95,11aR,11bR)-9-(1-((1H-indole-3-yl))-1,3-dihydropyrrolo[4,3,2-de]isoquinolin-5-yl)-1,3-dibenzyl-11b-hydroxy-6-isopropylhexahydro-2H-pyrrolo [2',1':3,4]pyridazine [1,2-a][1,3,5] triazine-2,4,7 (3H. 6H)-trione]",,A (a CPE inhibition effect of 5% or more)
"O=C(NCc1ccc2ccccc2c1)[C@H]1CCC2=C3N(Cc4ccccc4)C(=O)N(Cc4ccccc4)C(=O)N3[C@@H](Cc3ccccc3)C(=O)N21 [Compound 4E, (6S,9R)-1,3,6-Tribenzyl-N-(naphthalen-2-ylmethyl)-2,4,7-trioxo-1,3,4,6,7,9,10,1 1-octahydro-2H-pyrrolo [2',1':3,4]pyrazino[1,2-a] [1,3,5]triazine-9-carboxamide]",1 to 5,
"CCOC(=O)[C@@H]1CC[C@H]2N1C(=O)[C@@H](Cc1ccc3ccccc3c1)N1C(=O)N(Cc3ccccc3)C(=O)N(Cc3ccccc3)[C@]21O [Compound 7A, Ethyl (6R,9S,11aR,11bR)-1,3-dibenzyl-11b-hydroxy-6-(naphthalen-2-ylmethyl)-2,4,7-trioxodecahydro-2H-pyrrolo[2',1' :3,4]pyrazino[1,2-a][1,3,5]triazine-9-carboxylate]",< 1,
"O=C(NCc1ccc2ccccc2c1)[C@@H]1CCC2=C3N(Cc4ccccc4)C(=O)N(Cc4ccccc4)C(=O)N3[C@H](Cc3ccc4ccccc4c3)C(=O)N21 [Compound 7E, (6R,9S)-1,3-Dibenzyl-N,6-Bis(naphthalen-2-ylmethyl) -2,4,7-trioxo-1,3,4,6,7,9,10, 11-octahydro-2H-pyrrolo [2',1':3,4]pyrazino[1,2-a] [1,3,5]triazine-9-carboxamide]",1 to 5,
"O=C(NCc1ccc2ccccc2c1)[C@@H]1CCC2=C3N(Cc4ccccc4)C(=O)N(Cc4ccccc4)C(=O)N3[C@H](CC3CCCC3)C(=O)N21 [Compound 8E, (6R,9S)-1,3-Dibenzyl-6-(cyclopentylmethyl)-N-(naphthalen-2-ylmethyl)-2,4,7-trioxo-1,3,4,6,7,9,10,11-octahydro-2H-pyrrolo [2',1':3,4]pyrazino[1,2-a] [1,3,5]triazine-9-carboxamide]",< 1,
"O=C1[C@@H](Cc2ccccc2)N2C(=O)N(Cc3ccccc3)C(=O)N(Cc3ccccc3)C2=C2CCCN12 [Compound 9B, (R) 1.3.6-Tribenzyl-1,9,10,11-tetrahydro-2H-pyrrolo[2',1':3,4] pyridazino[1,2-a][1,3,5]triazine-2,4,7(3H,6H)-trione]",< 1,
"O=C1[C@H](Cc2ccccc2)N2C(=O)N(Cc3ccccc3)C(=O)N(Cc3ccccc3)C2=C2C[C@@H](OCc3ccccc3)CN12 [Compound 11B, (6S,10R)-1,3,6-Tribenzyl-10-(benzoxy)-1,9,10,11-tetrahydro-2 H-pyrrolo[2',1':3,4]pyridazino [1,2-a][1,3,5]triazine-2,4,7 (3H,6H)-trione]",> 5,
"O=C1[C@@H](Cc2ccccc2)N2C(=O)N(Cc3ccccc3)C(=O)N(Cc3ccccc3)C2=C2CCCCN12 [Compound 13B, (R) 1,3,6-Tribenzyl-9,10,11,12-tetrahydropyrido[2',1':3,4] pyrazino[1,2-a][1,3,5]triazine-2,4,7(1H,3H,6H)-trione]",1 to 5,
"O=C1C(Cc2ccccc2)N2C(=O)N(Cc3ccccc3)C(=O)N(Cc3ccccc3)C2=C2C[C@@H](OCc3ccccc3)CN12 (stereo partly drawn) [Compound 15B, (6R,10R)-1,3,6-tribenzyl-10-(benzyloxy)-1,9,10,11-tetrahydro-2H-pyrrolo[2',1':3,4] pyridazino[1,2-a][1,3,5] triazine-2,4,7(3H,6H)-trione]",< 1,
"O=C(NCc1ccc2ccccc2c1)[C@@H]1CCC2=C3N(c4ccccc4)C(=O)N(c4ccccc4)C(=O)N3[C@H](Cc3ccccc3)C(=O)N21 [Compound 16E, (6R,9S)-6-Benzyl-N-(naphthalen-2-ylmethyl)-2,4,7-trioxo-1,3-diphenyl-1,3,4,6,7,9,10,11-octahydro-2H-pyrrolo [2',1':3,4]pyrazino[1,2-a][1,3,5]triazine-9-carboxamide]",1 to 5,
"O=C(NCc1ccc2ccccc2c1)[C@@H]1CC[C@H]2N1C(=O)[C@@H](Cc1ccccc1)N1C(=O)N(CC3CCCC3)C(=O)N(CC3CCCC3)[C@]21O [Compound 17D, (6R,9S,11aR,11bR)-6-Benzyl-1,3-bis (cyclopentylmethyl)-11b-h ydroxy-N-(naphthalen-2-ylmethyl)-2,4,7-trioxodecahydro-2H-pyrrolo[2',1':3,4] pyridazino[1,2-a][1,3,5] triazine-9-carboxamide]",,A (a CPE inhibition effect of 5% or more)
"CNC(=O)[C@@H]1CC[C@H]2N1C(=O)[C@@H](Cc1ccccc1)N1C(=O)N(Cc3cccs3)C(=O)N(Cc3cccs3)[C@]21O [Compound 18F, (6R,9S,11aR,11bR)-6-benzyl-11b-hydroxy-N-methyl-2,4,7-trioxo-1,3-bis(thiophen-2-ylmethyl)decahydro-2H-pyrrolo [2',1':3,4]pyrazino[1,2-a][1,3,5]triazine-9-carboxamide]",1 to 5,
"CC(C)OC(=O)[C@@H]1CC[C@H]2N1C(=O)[C@@H](Cc1ccccc1)N1C(=O)N(Cc3cccs3)C(=O)N(Cc3cccs3)[C@]21O [Compound 18G, Isopropyl (6R,9S,11aR,11bR)-6-benzyl-11b-hydroxy-2,4,7-trioxo-1,3-bis(thiophen-2-ylmethyl)decahydro-2H-pyrrolo [2',1':3,4]pyridazine[1,2-a][1,3,5]triazine-9-carboxylate]",,A (a CPE inhibition effect of 5% or more)
"CCN(C(=O)NCCCN(C)C)C(=O)[C@@H]1CC[C@H]2N1C(=O)[C@@H](Cc1ccccc1)N1C(=O)N(Cc3cccs3)C(=O)N(Cc3cccs3)C21O (stereo partly drawn) [Compound 18H, (6R,9S,11aR)-6-benzyl-N-((3-(dimethylamino)propyl)carbamoil)-N-ethyl-11b-Hydroxy-2,4,7-trioxo-1,3-bis(thiophen-2-ylmethyl)decahydro-2H-pyrrolo[2',1':3,4] pyrazino[1,2-a][1,3,5]triazine-9-carboxamide]",,A (a CPE inhibition effect of 5% or more)
"Cc1noc([C@@H]2CC[C@H]3N2C(=O)[C@@H](Cc2ccccc2)N2C(=O)N(Cc4cccs4)C(=O)N(Cc4cccs4)C32O)n1 (stereo partly drawn) [Compound 18I, (6R,9S,11aR)-6-benzyl-11b-hydroxy-9-(3-methyl-1,2,4-oxadiazol-5-yl)-1,3-bis(thiophen-2-ylmethyl)hexahydro-2H-pyrrolo[2',1':3,4]pyridazine[1,2-a][1,3,5]triazine-2,4,7(3H,6H)-trione]",,B (a CPE inhibition effect of less than 5% but 1% or more)
